Test results: patent US12195490B2, “STRAD-binding agents and uses thereof” (The Regents of the University of California, priority 2020, dated 2025)

biological target: T1, LKB1 (Homo sapiens, UniProt Q15831+Q7RTN6); assay: in vitro LKB1 functional activity; type: biochemical; conditions: APA analogs
T1 sequence (Q15831 1-433): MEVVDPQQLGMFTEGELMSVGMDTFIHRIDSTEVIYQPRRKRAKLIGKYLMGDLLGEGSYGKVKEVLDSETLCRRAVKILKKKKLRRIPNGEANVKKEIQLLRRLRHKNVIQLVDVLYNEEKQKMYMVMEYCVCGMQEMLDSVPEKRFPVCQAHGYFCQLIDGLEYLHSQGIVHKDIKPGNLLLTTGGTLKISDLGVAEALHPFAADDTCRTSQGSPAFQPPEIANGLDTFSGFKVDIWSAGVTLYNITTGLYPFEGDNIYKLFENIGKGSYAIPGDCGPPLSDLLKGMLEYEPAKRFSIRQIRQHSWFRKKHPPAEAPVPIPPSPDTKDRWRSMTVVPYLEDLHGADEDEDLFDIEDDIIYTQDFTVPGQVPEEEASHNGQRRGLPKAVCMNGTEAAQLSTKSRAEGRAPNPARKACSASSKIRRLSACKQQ
T1 sequence (Q7RTN6 1-431): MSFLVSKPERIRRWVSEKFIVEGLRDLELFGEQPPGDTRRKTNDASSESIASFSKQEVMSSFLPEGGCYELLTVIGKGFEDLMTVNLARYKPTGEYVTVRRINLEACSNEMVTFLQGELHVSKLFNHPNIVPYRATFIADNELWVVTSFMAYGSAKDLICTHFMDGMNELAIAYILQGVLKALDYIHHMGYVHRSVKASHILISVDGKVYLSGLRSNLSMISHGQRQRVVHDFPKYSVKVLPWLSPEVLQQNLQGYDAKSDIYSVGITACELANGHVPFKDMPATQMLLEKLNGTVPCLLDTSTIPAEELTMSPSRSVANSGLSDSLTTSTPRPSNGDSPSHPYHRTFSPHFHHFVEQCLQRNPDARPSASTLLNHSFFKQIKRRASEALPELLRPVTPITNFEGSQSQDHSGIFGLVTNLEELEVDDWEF
T1 sequence (Q9Y376 1-341 partner): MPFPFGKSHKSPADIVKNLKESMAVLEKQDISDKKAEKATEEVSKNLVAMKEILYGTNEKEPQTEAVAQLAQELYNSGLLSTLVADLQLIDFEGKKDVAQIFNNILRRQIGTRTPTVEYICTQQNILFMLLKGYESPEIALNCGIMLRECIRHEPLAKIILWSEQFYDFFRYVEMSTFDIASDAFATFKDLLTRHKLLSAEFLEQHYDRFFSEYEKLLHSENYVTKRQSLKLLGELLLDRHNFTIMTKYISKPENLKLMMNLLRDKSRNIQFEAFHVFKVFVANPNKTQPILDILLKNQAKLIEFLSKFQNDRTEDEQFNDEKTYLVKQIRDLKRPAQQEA

With `CC(=O)NS(=O)(=O)c1ccc(NC(=O)c2nc(-c3ccc(CO)cc3)cnc2N)cc1` [SU20668-0348, N-(4-(N-acetylsulfamoyl)phenyl)-3-amino-6-(4-(hydroxymethyl)phenyl)pyrazine-2-carboxamide] as the compound, how does the “LKB1 % Act. Increase” value read?
Its value is “C (C=199-1000%)”.

`Cc1ccc(-c2cnc(N)c(C(=O)Nc3ccc(C(=O)O)nc3)n2)cc1` [SU20668-0300, 5-(3-amino-6-p-tolylpyrazine-2-carboxamido)picolinic acid] was tested. Which “LKB1 % Act. Increase” value did it give?
Its value is “D (D=<1000%)”.

Which “LKB1 % Act. Increase” value does the source give for `COP(=O)(CS(=O)(=O)c1ccc(NC(=O)c2nc(-c3ccc(S(C)(=O)=O)cc3)cnc2N)cc1)OC` [SU20668-0447, dimethyl (4-(3-amino-6-(4-(methylsulfonyl)phenyl)pyrazine-2-carboxamido)phenylsulfonyl)methylphosphonate] here?
Its value is “D (D=<1000%)”.

`CCO[P@](C)(=O)CS(=O)(=O)c1ccc(NC(=O)c2nc(-c3ccc(C)cc3)cnc2N)cc1` [SU20668-0518, (S)-ethyl (4-(3-amino-6-p-tolylpyrazine-2-carboxamido)phenylsulfonyl)methyl(methyl)phosphinate] was tested. Which “LKB1 % Act. Increase” value did it give?
The value was “B (B=399-2000%)”.

Which “LKB1 % Act. Increase” value does the source give for `COP(=O)(CS(=O)(=O)c1ccc(NC(=O)c2nc(-c3ccc(C)s3)cnc2N)cc1)OC` [SU20668-0448, dimethyl (4-(3-amino-6-(5-methylthiophen-2-yl)pyrazine-2-carboxamido)phenylsulfonyl)methylphosphonate] here?
Its value is “C (C=199-1000%)”.

With `Cc1ccc(-c2cnc(N)c(C(=O)Nc3ccc(S(=O)(=O)NC(=O)CCOCc4ccccc4)cc3)n2)cc1` [SU20668-0368, 3-amino-N-(4-(N-(3-(benzyloxy)propanoyl)sulfamoyl)phenyl)-6-p-tolylpyrazine-2-carboxamide] as the compound, how does the “LKB1 % Act. Increase” value read?
The value was “D (D=<1000%)”.

With `Cc1ccc(-c2cnc(N)c(C(=O)Nc3ccc(C(N)=O)cc3)n2)cc1` [SU20668-0280, 3-amino-N-(4-carbamoylphenyl)-6-p-tolylpyrazine-2-carboxamide] as the compound, how does the “LKB1 % Act. Increase” value read?
Its value is “D (D=<1000%)”.

With `Cc1ccc(-c2cnc(N)c(C(=O)Nc3ccc(S(=O)(=O)CP(=O)(OC(C)C)OC(C)C)cc3)n2)cc1` [SU20668-0484, diisopropyl (4-(3-amino-6-p-tolylpyrazine-2-carboxamido)phenylsulfonyl)methylphosphonate] as the compound, how does the “LKB1 % Act. Increase” value read?
The value was “D (D=<1000%)”.

`COP(=O)(CS(=O)(=O)c1ccc(NC(=O)c2nc(-c3ccc(C)cc3C)cnc2N)cc1)OC` [SU20668-0450, dimethyl (4-(3-amino-6-(2,4-dimethylphenyl)pyrazine-2-carboxamido)phenylsulfonyl)methylphosphonate] was tested. Which “LKB1 % Act. Increase” value did it give?
The value was “D (D=<1000%)”.

For `CCOP(C)(=O)COc1ccc(NC(=O)c2nc(-c3ccc(C)cc3)cnc2N)cc1` (stereo not drawn) [SU20668-0476], which “LKB1 % Act. Increase” value is on record?
Its value is “D (D=<1000%)”.

`Cc1ccc(-c2cnc(N)c(C(=O)Nc3ccc(S(=O)(=O)CC(=O)O)cc3)n2)cc1` [SU20668-0310, 2-(4-(3-amino-6-p-tolylpyrazine-2-carboxamido)phenylsulfonyl)acetic acid] was tested. Which “LKB1 % Act. Increase” value did it give?
Its value is “D (D=<1000%)”.

For `CCO[P@@](C)(=O)CS(=O)(=O)c1ccc(NC(=O)c2nc(-c3ccc(C)cc3)cnc2N)cc1` [SU20668-0517, (R)-ethyl (4-(3-amino-6-p-tolylpyrazine-2-carboxamido)phenylsulfonyl)methyl(methyl)phosphinate], which “LKB1 % Act. Increase” value is on record?
The value was “B (B=399-2000%)”.

How did the “LKB1 % Act. Increase” value turn out when `CC(=O)NS(=O)(=O)c1ccc(NC(=O)c2nc(-c3ccc4cn[nH]c4c3)cnc2N)cc1` [SU20668-0343, N-(4-(N-acetylsulfamoyl)phenyl)-3-amino-6-(1H-indazol-6-yl)pyrazine-2-carboxamide] was run?
The value was “C (C=199-1000%)”.

How did the “LKB1 % Act. Increase” value turn out when `CCOP(=O)(CS(=O)(=O)c1ccc(NC(=O)c2nc(-c3cc(F)ccc3C#N)cnc2N)cc1)OCC` [SU20668-0471, diethyl (4-(3-amino-6-(2-cyano-5-fluorophenyl)pyrazine-2-carboxamido)phenylsulfonyl)methylphosphonate] was run?
The value was “D (D=<1000%)”.

`Cc1ccc(-c2cnc(N)c(C(=O)Nc3ccc(S(=O)(=O)NC(=O)CCc4ccccc4)cc3)n2)cc1` [SU20668-0328, 3-amino-N-(4-(N-(3-phenylpropanoyl)sulfamoyl)phenyl)-6-p-tolylpyrazine-2-carboxamide] was tested. Which “LKB1 % Act. Increase” value did it give?
The value was “D (D=<1000%)”.

`CC(=O)NS(=O)(=O)c1ccc(NC(=O)c2nc(-c3ccncc3F)cnc2N)cc1` [SU20668-0374, N-(4-(N-acetylsulfamoyl)phenyl)-3-amino-6-(3-fluoropyridin-4-yl)pyrazine-2-carboxamide] was tested. Which “LKB1 % Act. Increase” value did it give?
The value was “C (C=199-1000%)”.

Which “LKB1 % Act. Increase” value does the source give for `Cc1ccc(-c2cnc(N)c(C(=O)Nc3ccc(S(=O)(=O)C(F)(F)F)cc3)n2)cc1` [SU20668-0292, 3-amino-6-p-tolyl-N-(4-(trifluoromethylsulfonyl)phenyl)pyrazine-2-carboxamide] here?
The value was “D (D=<1000%)”.

How did the “LKB1 % Act. Increase” value turn out when `CS(=O)(=O)c1ccc(-c2cnc(N)c(C(=O)Nc3ccc(S(N)(=O)=O)cc3)n2)cc1` [SU20668-0309, 3-amino-6-(4-(methylsulfonyl)phenyl)-N-(4-sulfamoylphenyl)pyrazine-2-carboxamide] was run?
Its value is “C (C=199-1000%)”.

With `Cc1ccc(-c2cnc(N)c(C(=O)Nc3ccc(S(N)(=O)=O)nc3)n2)cc1` [SU20668-0304, 3-amino-N-(6-sulfamoylpyridin-3-yl)-6-p-tolylpyrazine-2-carboxamide] as the compound, how does the “LKB1 % Act. Increase” value read?
The value was “D (D=<1000%)”.

With `CCOP(=O)(CS(=O)(=O)c1ccc(NC(=O)c2nc(-c3ccc(C(F)(F)F)cc3)cnc2N)cc1)OCC` [SU20668-0488, diethyl (4-(3-amino-6-(4-(trifluoromethyl)phenyl)pyrazine-2-carboxamido)phenylsulfonyl)methylphosphonate] as the compound, how does the “LKB1 % Act. Increase” value read?
Its value is “D (D=<1000%)”.

Which “LKB1 % Act. Increase” value does the source give for `CS(=O)(=O)c1ccc(NC(=O)c2nc(-c3ccc(S(C)(=O)=O)cc3)cnc2N)cc1` [SU20668-0317, methyl 3-amino-N,6-bis(4-(methylsulfonyl)phenyl)pyrazine-2-carboxamide] here?
Its value is “C (C=199-1000%)”.

How did the “LKB1 % Act. Increase” value turn out when `COP(=O)(CS(=O)(=O)c1ccc(NC(=O)c2nc(-c3cc(F)ccc3Cl)cnc2N)cc1)OC` [SU20668-0449, dimethyl (4-(3-amino-6-(2-chloro-5-fluorophenyl)pyrazine-2-carboxamido)phenylsulfonyl)methylphosphonate] was run?
Its value is “C (C=199-1000%)”.

`Cc1ccc(-c2cnc(N)c(C(=O)Nc3ccc(C(=O)NS(C)(=O)=O)cc3)n2)cc1` [SU20668-0478, 3-amino-N-(4-(methylsulfonylcarbamoyl)phenyl)-6-p-tolylpyrazine-2-carboxamide] was tested. Which “LKB1 % Act. Increase” value did it give?
The value was “D (D=<1000%)”.

With `COP(=O)(OC)C(C)S(=O)(=O)c1ccc(NC(=O)c2nc(-c3ccc(C)cc3)cnc2N)cc1` (stereo not drawn) [SU20668-0516, dimethyl 1-(4-(3-amino-6-p-tolylpyrazine-2-carboxamido)phenylsulfonyl)ethylphosphonate] as the compound, how does the “LKB1 % Act. Increase” value read?
Its value is “A (A=>4000%)”.

`Cc1ccc(-c2cnc(N)c(C(=O)Nc3cnc(S(C)(=O)=O)nc3)n2)cc1` [SU20668-0303, 3-amino-N-(2-(methylsulfonyl)pyrimidin-5-yl)-6-p-tolylpyrazine-2-carboxamide] was tested. Which “LKB1 % Act. Increase” value did it give?
Its value is “D (D=<1000%)”.

With `Cc1ccc(-c2cnc(N)c(C(=O)Nc3ccc(S(=O)(=O)NC(=O)C(C)C)cc3)n2)cc1` [SU20668-0327, 3-amino-N-(4-(N-isobutyrylsulfamoyl)phenyl)-6-p-tolylpyrazine-2-carboxamide] as the compound, how does the “LKB1 % Act. Increase” value read?
The value was “D (D=<1000%)”.

With `CC(=O)NS(=O)(=O)c1ccc(NC(=O)c2nc(-c3ccc(C(N)=O)cc3)cnc2N)cc1` [SU20668-0342, N-(4-(N-acetylsulfamoyl)phenyl)-3-amino-6-(4-carbamoylphenyl)pyrazine-2-carboxamide] as the compound, how does the “LKB1 % Act. Increase” value read?
The value was “D (D=<1000%)”.

Which “LKB1 % Act. Increase” value does the source give for `CC(=O)NS(=O)(=O)c1ccc(NC(=O)c2nc(-c3ccc(N)cc3)cnc2N)cc1` [SU20668-0344, N-(4-(N-acetylsulfamoyl)phenyl)-3-amino-6-(4-aminophenyl)pyrazine-2-carboxamide] here?
The value was “C (C=199-1000%)”.

Which “LKB1 % Act. Increase” value does the source give for `CCS(=O)(=O)c1cccc(-c2cnc(N)c(C(=O)Nc3ccc(S(=O)(=O)NC(C)=O)cc3)n2)c1` [SU20668-0373, N-(4-(N-acetylsulfamoyl)phenyl)-3-amino-6-(3-(ethylsulfonyl)phenyl)pyrazine-2-carboxamide] here?
Its value is “C (C=199-1000%)”.

Which “LKB1 % Act. Increase” value does the source give for `Cc1ccc(-c2cnc(N)c(C(=O)Nc3ccc(S(C)(=N)=O)cc3)n2)cc1` (stereo not drawn) [SU20668-0490] here?
The value was “C (C=199-1000%)”.
